ChEMBL document CHEMBL4699599, “Discovery of a Beetroot Protease Inhibitor to Identify and Classify Plant-Derived Cystine Knot Peptides” (J Nat Prod, 2020)
Positions of bridges follow the written chain, without caps; N, C: chain ends. Residues, ends and D or L forms follow the SMILES beside them.

Target: T1, Serine protease 1 (Bos taurus) (UniProt P00760)
T1 sequence (whole entry): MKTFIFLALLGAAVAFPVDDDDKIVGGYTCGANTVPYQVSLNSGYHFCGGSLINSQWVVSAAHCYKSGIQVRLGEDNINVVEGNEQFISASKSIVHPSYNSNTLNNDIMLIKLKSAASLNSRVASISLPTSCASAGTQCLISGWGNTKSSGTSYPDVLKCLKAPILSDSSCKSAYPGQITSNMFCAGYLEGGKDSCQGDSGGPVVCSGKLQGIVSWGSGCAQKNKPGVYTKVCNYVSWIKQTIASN
Test: Inhibition of bovine beta-trypsin using BAPNA as substrate assessed as […]

Activity | Compound
536 nM | CC[C@H](C)[C@@H]1NC(=O)[C@H](CCCNC(=N)N)NC(=O)[C@H](CC(C)C)NC(=O)[C@H](CCCNC(=N)N)NC(=O)[C@@H]2CCCN2C(=O)[C@@H]2CCCN2C(=O)[C@H](Cc2cnc[nH]2)NC(=O)[C@@H]2CCCN2C(=O)[C@H](C(C)C)NC(=O)[C@@H]2CSSC[C@@H]3NC(=O)[C@H]([C@@H](C)CC)NC(=O)[C@H](CCC(N)=O)NC(=O)[C@H](CC(=O)O)NC(=O)[C@H]([C@@H](C)O)NC(=O)[C@H](CCCCN)NC(=O)[C@H](C)NC(=O)[C@@H](NC(=O)[C@H](CCC(=O)O)NC(=O)[C@H](CCC(=O)O)NC(=O)[C@H](CC(=O)O)NC(=O)[C@@H](N)CCC(=O)O)CSSC[C@H](NC(=O)[C@H](CSSC[C@@H](C(=O)N[C@@H](C)C(=O)O)NC(=O)[C@H](C(C)C)NC(=O)[C@H](Cc4ccccc4)NC1=O)NC(=O)[C@H](Cc1ccc(O)cc1)NC(=O)[C@H](CC(N)=O)NC(=O)[C@@H]1CCCN1C(=O)[C@H](C)NC(=O)[C@H](CC(N)=O)NC(=O)[C@@H]1CCCN1C(=O)[C@@H]1CCCN1C3=O)C(=O)N[C@@H](CO)C(=O)NCC(=O)N[C@@H](CO)C(=O)N2 (H-EDEECAKTDQICPPNAPNYCCSGSCVPHPPRLRIFVCA-OH; disulfide 5-21, 12-25, 20-37)
185 nM | CC[C@H](C)[C@@H]1NC(=O)[C@H](C)NC(=O)CNC(=O)[C@H](CO)NC(=O)[C@@H]2CCCN2C(=O)[C@H](CO)NC(=O)[C@@H](NC(=O)[C@@H](N)CCCCN)CSSC[C@@H]2NC(=O)[C@@H]3CSSC[C@@H](C(=O)N[C@@H](CCC(N)=O)C(=O)O)NC(=O)[C@H](C(C)C)NC(=O)[C@H](Cc4ccccc4)NC(=O)[C@H]([C@@H](C)CC)NC(=O)[C@H](CCCNC(=N)N)NC(=O)[C@H](CC(C)C)NC(=O)[C@H]([C@@H](C)CC)NC(=O)[C@@H]4CCCN4C(=O)[C@H](Cc4cnc[nH]4)NC(=O)[C@@H]4CCCN4C(=O)[C@H](C(C)C)NC(=O)[C@H](CSSC[C@H](NC1=O)C(=O)N[C@@H](CO)C(=O)NCC(=O)N[C@@H](Cc1ccccc1)C(=O)NCC(=O)N1CCC[C@H]1C(=O)N1CCC[C@H]1C(=O)N[C@@H](CCC(=O)O)C(=O)N[C@@H](CCC(N)=O)C(=O)N3)NC(=O)[C@H](C)NC(=O)CNC(=O)[C@H](CO)NC2=O (H-KCSPSGAICSGFGPPEQCCSGACVPHPILRIFVCQ-OH; disulfide 2-19, 9-23, 18-34)
